Consider one compound from US7772183B2 (Bristol-Myers Squibb Company, priority 2005, dated 2010).

SMILES strings stand for the structures. Read-outs that look alike come from different tables or passages of the source.

Assay [1] deals with T1, human liver cathepsin B (Homo sapiens, UniProt P07858).
T1 construct: purchased Sigma or EMDbiosciences; host or cells: human liver (as named)
The experiment in a line: Specificity assay, cathepsin B. The class given is biochemical. The settings on record: read-out: Cathepsin B activity in the specificity assays. The method, then: The specificities of compounds of the present disclosure were determined against a variety of serine proteases: human neutrophil elastase (HNE), porcine pancreatic elastase (PPE) and human pancreatic chymotrypsin and one cysteine protease: human liver cathepsin B. In all cases, a 96-well plate format protocol using colorimetric p-nitroaniline (pNA) substrate or fluorometric Amino-Methyl-Coumarin (AMC) substrate, specific for each enzyme was used as described previously (PCT Patent Application No. WO 00/09543) with some modifications. All enzymes were purchased from Sigma or EMDbiosciences while the substrates were from Bachem.
Each pNA assay included a 2 h enzyme-inhibitor pre-incubation at room temperature followed by addition of substrate and hydrolysis to ˜15% conversion as measured on a Spectramax Pro microplate reader. The cathepsin B assay was initiated by adding substrate to a 10 min enzyme-inhibitor pre-incubation at room temperature, and the assay plate measured immediately using the Cytofluor Series 4000. Compound concentrations varied from 100 to 0.4 μM depending on their potency.
The final conditions for each assay were as follows: […]
The percentage of inhibition was calculated using the formula: [1−((UVinh−UVblank)/(UVctl−UVblank))]×100 […]

For assay [2], the target named is T2, HCV NS3/4A protease complex, BMS strain (UniProt P27958, species not given/STRAIN_BMS).
T2 construct: said of H77 and J4L6S; fused on or other part: A three-lysine solubilising tail at the C-terminus of NS4A and a His tag (pET21b, Ni-NTA purification)
T2 sequence (P27958 1027-1657, change not shown, one chain of several): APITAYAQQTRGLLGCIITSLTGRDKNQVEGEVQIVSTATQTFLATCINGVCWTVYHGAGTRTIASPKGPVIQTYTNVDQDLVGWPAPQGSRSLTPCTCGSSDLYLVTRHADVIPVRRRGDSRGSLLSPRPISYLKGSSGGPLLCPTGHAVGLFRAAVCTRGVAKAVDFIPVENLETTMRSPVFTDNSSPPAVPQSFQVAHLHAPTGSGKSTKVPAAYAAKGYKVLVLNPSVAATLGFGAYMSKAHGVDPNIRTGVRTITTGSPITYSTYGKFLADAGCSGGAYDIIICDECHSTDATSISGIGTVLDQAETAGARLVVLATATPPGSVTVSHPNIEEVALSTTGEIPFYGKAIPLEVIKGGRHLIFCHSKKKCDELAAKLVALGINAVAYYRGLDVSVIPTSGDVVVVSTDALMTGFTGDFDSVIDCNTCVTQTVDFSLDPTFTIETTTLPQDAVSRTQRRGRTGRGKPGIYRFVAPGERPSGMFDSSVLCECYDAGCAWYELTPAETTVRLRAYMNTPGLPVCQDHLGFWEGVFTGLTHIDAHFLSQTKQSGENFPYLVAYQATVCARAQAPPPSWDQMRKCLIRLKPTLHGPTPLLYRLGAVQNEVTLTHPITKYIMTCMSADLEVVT
Kind of assay: FRET peptide assay to monitor HCV NS3/4A proteolytic activity (BMS strain). The class given is biochemical, Hepatitis C virus (genotype 1a). The essentials:
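Recombinant NS3/4A complexes (aa 1027–1711) from H77 (1a) and J4L6S (1b) carried a three-lysine tail, C1711G and C1454S. They were expressed in E. coli BL21(DE3) (0.5 mM IPTG, 22 h, 20 °C), then purified by Ni-NTA and Superdex-S200 to >90% purity. The BMS strain was a genotype 1a clone from patient serum.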

On to `CC(C)(C)OC(=O)N[C@H]1CCCCC/C=C\[C@@H]2C[C@@]2(C(=O)NS(=O)(=O)C2CC2)NC(=O)[C@@H]2C[C@@H](OC(=O)c3ccc(C#N)cc3)CN2C1=O` [Compound 26, 18-(4-cyanobenzoyloxy)-14-tert-butoxycarbonylamino-4-cyclopropylsulfonylaminocarbonyl-2,15-dioxo-3,16-diazatricyclo-[14.3.0.0^4,6]-nonadec-7-ene], for which the IC50 in assay [1] was at least 100000 nM; in assay [2] (BMS strain, read-out: IC50 against the NS3/4A BMS strain in the enzyme assay), 0.78 nM; in assay [2] (NS3/4A BMS strain, read-out: IC50 Range), under 100 nM.
